Assay results reported in ChEMBL document CHEMBL1146481, “Rediocides B-E, potent insecticides from Trigonostemon reidioides” (2004).

These compounds were tested on Ctenocephalides felis (assay: Insecticidal activity against Ctenocephalides felis by anti-flea artificial membrane feeding system).
Assay type: functional

In order of falling LD90:
1. C[C@H]1[C@@H]2CC[C@@H]1[C@@H](OC(=O)c1ccccc1)/C=C/C=C/C(=O)O[C@H]1[C@@H](C)C[C@@H]3[C@]1(O)[C@H](O)[C@@]1(CO)O[C@H]1[C@H]1[C@H]4OC5(c6ccccc6)O[C@@H]([C@@H](C)[C@@]13O5)[C@@]4(O)[C@](C)(O)C2 [REDIOCIDE C]  0.5 ppm
2. CC(C)CC(=O)O[C@H]1/C=C/C=C/C(=O)O[C@H]2CC[C@@H]3[C@]2(O)[C@H](O)[C@@]2(CO)O[C@H]2[C@H]2[C@H]4OC5(c6ccccc6)O[C@@H]([C@@H](C)[C@@]23O5)[C@@]4(O)[C@](C)(O)C[C@H]2CC[C@H]1[C@H]2C [REDIOCIDE E]  0.5 ppm
3. CC(C)CC(=O)O[C@H]1/C=C/C=C/C(=O)O[C@H]2[C@@H](C)C[C@@H]3[C@]2(O)[C@H](O)[C@@]2(CO)O[C@H]2[C@H]2[C@H]4OC5(c6ccccc6)O[C@@H]([C@@H](C)[C@@]23O5)[C@@]4(O)[C@](C)(O)C[C@H]2CC[C@H]1[C@H]2C [REDIOCIDE A]  0.25 ppm
4. CC(C)CC(=O)O[C@H]1/C=C/C=C/C(=O)O[C@H]2[C@@H](C)C[C@@H]3[C@]2(O)[C@H](O)[C@@]2(CO)O[C@H]2[C@H]2[C@H]4OC5(c6ccccc6)O[C@@H]([C@@H](C)[C@@]23O5)[C@@]4(O)[C@](C)(O)CC2CCC1CC2 [REDIOCIDE B]  0.25 ppm
5. C[C@@H]1[C@@H]2OC3(c4ccccc4)O[C@@H]4[C@@H]5[C@@H]6O[C@]6(C)[C@@H](O)[C@@]6(O)[C@@H](C[C@H](C)[C@@H]6OC(=O)/C=C/[C@@H]6O[C@H]6[C@H](OC(=O)c6ccccc6)C6CCC(CC6)C[C@@](C)(O)[C@@]42O)[C@]51O3 [REDIOCIDE D]  0.25 ppm
